From the NIST ThermoML archive (doi:10.1016/j.jct.2017.08.004)
Numbers after ± are expanded uncertainties.

Assay: molar heat capacity at constant pressure
Settings: 101.33 kPa

OC[C@@H](O)[C@H](O)[C@@H](O)CO [xylitol]
molar heat capacity at constant pressure [J/K/mol]
Settings | Small sample (50 mg) DSC | relaxation calorimetry
261.15 K, Crystal | 182.91 ± 11 | –
262.13 K, Crystal | – | 182.23 ± 7.4
262.15 K, Crystal | 183.56 ± 11 | –
263.15 K, Crystal | 184.15 ± 11 | –
264.15 K, Crystal | 184.93 ± 11 | –
265.15 K, Crystal | 185.58 ± 11 | –
266.15 K, Crystal | 186.01 ± 11 | –
267.15 K, Crystal | 186.68 ± 12 | –
268.15 K, Crystal | 187.58 ± 12 | –
269.15 K, Crystal | 188.3 ± 12 | –
270 K, Crystal | – | 187.42 ± 11
270.15 K, Crystal | 188.75 ± 12 | –
271.15 K, Crystal | 189.44 ± 12 | –
272.13 K, Crystal | – | 189.16 ± 7.7
272.15 K, Crystal | 190.09 ± 12 | –
273.15 K, Crystal | 190.92 ± 12 | 189.56 ± 12
274.15 K, Crystal | 191.54 ± 12 | –
275.15 K, Crystal | 192.36 ± 12 | –
276.15 K, Crystal | 193.1 ± 12 | –
277.15 K, Crystal | 193.74 ± 12 | –
278.15 K, Crystal | 194.49 ± 12 | –
279.15 K, Crystal | 195.25 ± 12 | –
280 K, Crystal | – | 194.26 ± 12
280.15 K, Crystal | 195.98 ± 12 | –
281.15 K, Crystal | 196.83 ± 12 | –
282.15 K, Crystal | 197.52 ± 12 | –
282.21 K, Crystal | – | 195.78 ± 8
283.15 K, Crystal | 198.24 ± 12 | –
284.15 K, Crystal | 198.78 ± 12 | –
285.15 K, Crystal | 199.46 ± 12 | –
286.15 K, Crystal | 200.2 ± 12 | –
287.15 K, Crystal | 200.97 ± 12 | –
288.15 K, Crystal | 201.79 ± 12 | –
289.15 K, Crystal | 202.38 ± 12 | –
290 K, Crystal | – | 201.22 ± 12
290.15 K, Crystal | 203.24 ± 13 | –
291.15 K, Crystal | 204 ± 13 | –
292.15 K, Crystal | 204.53 ± 13 | –
292.34 K, Crystal | – | 202.53 ± 8.2
293.15 K, Crystal | 205.39 ± 13 | –
294.15 K, Crystal | 206.39 ± 13 | –
295.15 K, Crystal | 207.02 ± 13 | –
296.15 K, Crystal | 207.76 ± 13 | –
297.15 K, Crystal | 208.58 ± 13 | –
298.15 K, Crystal | 209.23 ± 13 | 207 ± 13
299.15 K, Crystal | 209.95 ± 13 | –
300 K, Crystal | – | 208.32 ± 13
300.15 K, Crystal | 210.89 ± 13 | –
301.15 K, Crystal | 211.84 ± 13 | –
302.15 K, Crystal | 212.55 ± 13 | –
302.38 K, Crystal | – | 210.13 ± 8.5
303.15 K, Crystal | 213.48 ± 13 | –
304.15 K, Crystal | 214.26 ± 13 | –
305 K, Crystal | 215.28 ± 13 | –
305.15 K, Crystal | 215.11 ± 13 | –
306.15 K, Crystal | 216.14 ± 13 | –
307.15 K, Crystal | 217.06 ± 13 | –
308.15 K, Crystal | 217.82 ± 13 | –
309.15 K, Crystal | 218.75 ± 13 | –
310 K, Crystal | 219.82 ± 14 | –
310.15 K, Crystal | 219.97 ± 14 | –
311.15 K, Crystal | 220.76 ± 14 | –
312.15 K, Crystal | 221.67 ± 14 | –
313.15 K, Crystal | 222.64 ± 14 | –
314.15 K, Crystal | 223.41 ± 14 | –
315 K, Crystal | 224.06 ± 14 | –
315.15 K, Crystal | 224.2 ± 14 | –
316.15 K, Crystal | 225.05 ± 14 | –
317.15 K, Crystal | 225.99 ± 14 | –
318.15 K, Crystal | 226.72 ± 14 | –
319.15 K, Crystal | 227.57 ± 14 | –
320 K, Crystal | 228.13 ± 14 | –
320.15 K, Crystal | 228.44 ± 14 | –
321.15 K, Crystal | 229.1 ± 14 | –
322.15 K, Crystal | 229.81 ± 14 | –
323.15 K, Crystal | 230.76 ± 14 | –
324.15 K, Crystal | 231.54 ± 14 | –
325 K, Crystal | 232.15 ± 14 | –
325.15 K, Crystal | 232.32 ± 14 | –
326.15 K, Crystal | 233.13 ± 14 | –
327.15 K, Crystal | 234.07 ± 14 | –
328.15 K, Crystal | 234.91 ± 14 | –
329.15 K, Crystal | 235.68 ± 15 | –
330 K, Crystal | 236.23 ± 15 | –
330.15 K, Crystal | 236.5 ± 15 | –
331.15 K, Crystal | 237.35 ± 15 | –
332.15 K, Crystal | 238.2 ± 15 | –
333.15 K, Crystal | 238.98 ± 15 | –
334.15 K, Crystal | 239.74 ± 15 | –
335 K, Crystal | 240.51 ± 15 | –
335.15 K, Crystal | 240.54 ± 15 | –
336.15 K, Crystal | 241.37 ± 15 | –
337.15 K, Crystal | 242.09 ± 15 | –
338.15 K, Crystal | 242.99 ± 15 | –
339.15 K, Crystal | 244.05 ± 15 | –
340 K, Crystal | 245.1 ± 15 | –
340.15 K, Crystal | 244.86 ± 15 | –
341.15 K, Crystal | 245.84 ± 15 | –
342.15 K, Crystal | 246.78 ± 15 | –
343.15 K, Crystal | 247.9 ± 15 | –
345 K, Crystal | 250.14 ± 15 | –
384.05 K, Liquid | 437.55 ± 27 | –
384.15 K, Liquid | 437.54 ± 27 | –
385 K, Liquid | 437.31 ± 27 | –
385.15 K, Liquid | 437.23 ± 27 | –
386.15 K, Liquid | 436.89 ± 27 | –
387.15 K, Liquid | 436.55 ± 27 | –
388.15 K, Liquid | 436.95 ± 27 | –
389.15 K, Liquid | 436.95 ± 27 | –
390 K, Liquid | 437.71 ± 27 | –
390.15 K, Liquid | 437.09 ± 27 | –
391.15 K, Liquid | 437.18 ± 27 | –
392.15 K, Liquid | 437.31 ± 27 | –
393.15 K, Liquid | 437.7 ± 27 | –
394.15 K, Liquid | 438.11 ± 27 | –
395 K, Liquid | 438.53 ± 27 | –
395.15 K, Liquid | 438.36 ± 27 | –
396.15 K, Liquid | 438.65 ± 27 | –
397.15 K, Liquid | 439 ± 27 | –
398.15 K, Liquid | 439.02 ± 27 | –
399.15 K, Liquid | 439.36 ± 27 | –
400 K, Liquid | 439.66 ± 27 | –
400.15 K, Liquid | 439.81 ± 27 | –
401.15 K, Liquid | 440.13 ± 27 | –
402.15 K, Liquid | 440.23 ± 27 | –
403.15 K, Liquid | 440.54 ± 27 | –
404.15 K, Liquid | 441 ± 27 | –
405 K, Liquid | 440.98 ± 27 | –
405.15 K, Liquid | 441.38 ± 27 | –
406.15 K, Liquid | 441.87 ± 27 | –
407.15 K, Liquid | 442.08 ± 27 | –
408.15 K, Liquid | 442.44 ± 27 | –
409.15 K, Liquid | 442.7 ± 27 | –
410 K, Liquid | 442.38 ± 27 | –
410.15 K, Liquid | 442.88 ± 27 | –
411.15 K, Liquid | 443.4 ± 27 | –
412.15 K, Liquid | 443.35 ± 27 | –
413.15 K, Liquid | 443.38 ± 27 | –
414.15 K, Liquid | 443.78 ± 27 | –
415 K, Liquid | 443.73 ± 27 | –
415.15 K, Liquid | 443.82 ± 27 | –
416.15 K, Liquid | 444.07 ± 27 | –
417.15 K, Liquid | 444.35 ± 27 | –
418.15 K, Liquid | 444.54 ± 27 | –
419.15 K, Liquid | 444.75 ± 27 | –
420 K, Liquid | 444.92 ± 27 | –
420.15 K, Liquid | 444.83 ± 27 | –
421.15 K, Liquid | 444.89 ± 27 | –
422.15 K, Liquid | 445.1 ± 27 | –
423.15 K, Liquid | 445.32 ± 27 | –
424.15 K, Liquid | 445.31 ± 27 | –
425 K, Liquid | 445.83 ± 27 | –
425.15 K, Liquid | 445.36 ± 27 | –
426.15 K, Liquid | 445.64 ± 27 | –
427.15 K, Liquid | 445.75 ± 27 | –
428.15 K, Liquid | 445.78 ± 27 | –
429.15 K, Liquid | 445.83 ± 27 | –
430 K, Liquid | 446.33 ± 28 | –
430.15 K, Liquid | 445.91 ± 27 | –
431.15 K, Liquid | 446.11 ± 28 | –
432.15 K, Liquid | 446.26 ± 28 | –
433.15 K, Liquid | 446.16 ± 28 | –
434.15 K, Liquid | 446.18 ± 28 | –
435 K, Liquid | 446.32 ± 28 | –
435.15 K, Liquid | 446.7 ± 28 | –
436.15 K, Liquid | 446.78 ± 28 | –
437.15 K, Liquid | 446.54 ± 28 | –
438.15 K, Liquid | 446.6 ± 28 | –
